Test results reported in ChEMBL document CHEMBL1201862, “PubChem BioAssay data set” (2004).
Active and inactive are the calls of the source.

Key:
Assay type in all cases: functional
[1] = molecular target: Sphingosine 1-phosphate receptor 5 (Homo sapiens, UniProt Q9H228); assay: Late stage counterscreen assay for S1P4 antagonists: Fluorescence dose response cell-based screening assay for antagonists of the Sphingosine 1-Phosphate Receptor 5 (S1P5). [Related pubchem assays (depositor defined):AID1510, AID1524, AID1692, AID1853, AID2332, AID489009, AID489017]
Chain of Sphingosine 1-phosphate receptor 5 (Q9H228 whole entry): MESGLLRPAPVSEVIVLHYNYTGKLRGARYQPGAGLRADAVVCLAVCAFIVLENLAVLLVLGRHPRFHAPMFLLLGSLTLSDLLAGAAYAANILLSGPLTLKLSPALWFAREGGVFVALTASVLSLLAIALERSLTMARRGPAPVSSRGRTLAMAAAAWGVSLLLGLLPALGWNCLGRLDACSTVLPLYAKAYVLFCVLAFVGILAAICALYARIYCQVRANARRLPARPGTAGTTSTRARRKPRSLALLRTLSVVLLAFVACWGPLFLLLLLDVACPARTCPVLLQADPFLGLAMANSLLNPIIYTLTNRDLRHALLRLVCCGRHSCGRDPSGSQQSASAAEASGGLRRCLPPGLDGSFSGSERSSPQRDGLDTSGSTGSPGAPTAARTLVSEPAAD

[2] = molecular target: Sphingosine 1-phosphate receptor 3 (Homo sapiens, UniProt Q99500); assay: Late stage counterscreen assay for S1P4 antagonists: Fluorescence dose response cell-based screening assay for antagonists of the Sphingosine 1-Phosphate Receptor 3 (S1P3). [Related pubchem assays (depositor defined):AID1510, AID1524, AID1692, AID1853, AID2332, AID489009, AID489017]
Chain of Sphingosine 1-phosphate receptor 3 (Q99500 whole entry): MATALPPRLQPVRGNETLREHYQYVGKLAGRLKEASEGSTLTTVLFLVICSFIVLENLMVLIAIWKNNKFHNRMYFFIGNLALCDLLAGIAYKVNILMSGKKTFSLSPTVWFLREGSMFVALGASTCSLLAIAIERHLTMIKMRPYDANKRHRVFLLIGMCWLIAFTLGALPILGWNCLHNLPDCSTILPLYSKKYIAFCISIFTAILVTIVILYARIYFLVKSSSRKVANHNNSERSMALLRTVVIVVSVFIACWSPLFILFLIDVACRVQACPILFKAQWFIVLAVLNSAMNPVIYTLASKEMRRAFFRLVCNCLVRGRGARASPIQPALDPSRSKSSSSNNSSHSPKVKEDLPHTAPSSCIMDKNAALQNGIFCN

[3] = molecular target: T1, Sphingosine 1-phosphate receptor 1 (Homo sapiens, UniProt P21453); assay: Late stage counterscreen assay for S1P4 antagonists: Fluorescence dose response cell-based screening assay for antagonists of the Sphingosine 1-Phosphate Receptor 1 (S1P1). [Related pubchem assays (depositor defined):AID1510, AID1524, AID1692, AID1853, AID2332, AID489009, AID489017]
T1 sequence (P21453 whole entry): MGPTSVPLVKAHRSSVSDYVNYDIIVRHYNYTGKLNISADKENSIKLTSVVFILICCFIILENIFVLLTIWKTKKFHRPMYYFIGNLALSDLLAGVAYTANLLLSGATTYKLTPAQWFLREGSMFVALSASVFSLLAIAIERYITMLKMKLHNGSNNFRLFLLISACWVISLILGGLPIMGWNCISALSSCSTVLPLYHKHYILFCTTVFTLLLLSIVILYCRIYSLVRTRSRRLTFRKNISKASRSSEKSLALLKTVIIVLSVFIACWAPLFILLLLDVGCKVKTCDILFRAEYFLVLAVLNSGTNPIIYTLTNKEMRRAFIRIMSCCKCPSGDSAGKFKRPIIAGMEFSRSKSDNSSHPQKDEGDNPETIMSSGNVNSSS

[4] = molecular target: T2, Heat shock factor protein 1 (Mus musculus, UniProt P38532); assay: decrease of HSF1-responsive luciferase luminescence – cell-based, NIH3T3, dose retest, confirmation (AID 2382);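 note: NIH3T3 fibroblasts with HSF1-driven luciferase reporter stressed by proteasome inhibitor MG132; luminescence from HSF1-driven luciferase expression after 8 hours of MG132 stress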
T2 sequence (P38532 whole entry): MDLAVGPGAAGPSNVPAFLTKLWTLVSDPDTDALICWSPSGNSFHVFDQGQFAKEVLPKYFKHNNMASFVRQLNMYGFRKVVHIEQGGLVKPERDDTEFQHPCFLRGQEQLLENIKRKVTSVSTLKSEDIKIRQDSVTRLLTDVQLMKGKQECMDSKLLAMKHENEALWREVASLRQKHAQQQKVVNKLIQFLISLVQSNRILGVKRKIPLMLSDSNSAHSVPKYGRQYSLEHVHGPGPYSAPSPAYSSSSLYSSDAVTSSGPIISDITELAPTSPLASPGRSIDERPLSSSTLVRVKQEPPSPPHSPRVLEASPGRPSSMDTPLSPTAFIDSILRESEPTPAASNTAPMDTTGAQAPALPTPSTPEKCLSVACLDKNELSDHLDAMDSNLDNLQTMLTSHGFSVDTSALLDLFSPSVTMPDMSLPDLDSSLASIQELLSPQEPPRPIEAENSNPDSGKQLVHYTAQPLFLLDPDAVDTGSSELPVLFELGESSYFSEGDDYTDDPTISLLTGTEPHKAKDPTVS

[5] = viability of PTEN-deleted HCT116 cells – cell-based, HCT116 PTEN knockout, dose response (AID 1047);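 note: HCT116 colon tumor cells with PTEN knocked out; cells exposed to compound for 60 hours before readout; potency for loss of cell viability measured by luminescence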
[6] = molecular target: Sphingosine 1-phosphate receptor 2 (Homo sapiens, UniProt O95136); assay: Late stage counterscreen assay for S1P4 antagonists: Fluorescence dose response cell-based screening assay for antagonists of the Sphingosine 1-Phosphate Receptor 2 (S1P2). [Related pubchem assays (depositor defined):AID1510, AID1524, AID1692, AID1853, AID2332, AID489009, AID489017]
Chain of Sphingosine 1-phosphate receptor 2 (O95136 whole entry): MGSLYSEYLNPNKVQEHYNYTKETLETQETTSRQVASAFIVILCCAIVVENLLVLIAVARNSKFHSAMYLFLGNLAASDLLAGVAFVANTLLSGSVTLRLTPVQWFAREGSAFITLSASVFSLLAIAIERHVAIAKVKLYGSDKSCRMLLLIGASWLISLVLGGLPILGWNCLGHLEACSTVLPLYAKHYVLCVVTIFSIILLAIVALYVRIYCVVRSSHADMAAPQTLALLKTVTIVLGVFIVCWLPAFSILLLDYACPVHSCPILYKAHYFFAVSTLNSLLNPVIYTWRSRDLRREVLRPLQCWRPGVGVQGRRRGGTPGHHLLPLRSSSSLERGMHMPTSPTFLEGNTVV

[7] = molecular target: T3, Sphingosine 1-phosphate receptor 4 (Homo sapiens, UniProt O95977); assay: Late stage fluorescence dose response cell-based screening assay for antagonists of the Sphingosine 1-Phosphate Receptor 4 (S1P4). [Related pubchem assays: 1524 (Confirmation screen (S1P4 antagonists).), 1510 (Primary screen (S1P4 antagonists).), 1853 (Summary AID (S1P4 antagonists).), 1692 (Dose response screen (S1P4 antagonists).)]
T3 sequence (O95977 whole entry): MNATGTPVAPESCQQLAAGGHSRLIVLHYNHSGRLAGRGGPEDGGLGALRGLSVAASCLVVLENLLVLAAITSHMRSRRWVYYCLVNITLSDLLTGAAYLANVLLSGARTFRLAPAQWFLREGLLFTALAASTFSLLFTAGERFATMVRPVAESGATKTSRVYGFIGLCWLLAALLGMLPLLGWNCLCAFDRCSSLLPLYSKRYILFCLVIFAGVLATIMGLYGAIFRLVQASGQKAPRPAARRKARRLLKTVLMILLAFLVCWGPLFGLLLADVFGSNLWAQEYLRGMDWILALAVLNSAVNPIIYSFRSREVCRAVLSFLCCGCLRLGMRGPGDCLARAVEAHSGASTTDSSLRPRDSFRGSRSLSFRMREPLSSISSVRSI

[8] = viability of HCT116 lacking mutant beta-catenin – cell-based, human colon tumor, dose response (AID 1045);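 note: HCT116 colon tumor cells with beta catenin knocked out; cells exposed to compound for 60 hours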
[9] = molecular target: T3, Sphingosine 1-phosphate receptor 4; assay: Fluorescence dose response cell-based high throughput screening assay for antagonists of the Sphingosine 1-Phosphate Receptor 4 (S1P4). [Related pubchem assays: 1524 (Confirmation in triplicates.), 1510 (Primary screen.)]
[10] = molecular target: T1, Sphingosine 1-phosphate receptor 1
[11] = molecular target: G-protein coupled receptor 55 (Homo sapiens, UniProt Q9Y2T6); assay: selective activators of receptor GPR55 – imaging, U2OS cells, beta-arrestin-GFP redistribution, primary screen (AID 1961)
Chain of G-protein coupled receptor 55 (Q9Y2T6 whole entry): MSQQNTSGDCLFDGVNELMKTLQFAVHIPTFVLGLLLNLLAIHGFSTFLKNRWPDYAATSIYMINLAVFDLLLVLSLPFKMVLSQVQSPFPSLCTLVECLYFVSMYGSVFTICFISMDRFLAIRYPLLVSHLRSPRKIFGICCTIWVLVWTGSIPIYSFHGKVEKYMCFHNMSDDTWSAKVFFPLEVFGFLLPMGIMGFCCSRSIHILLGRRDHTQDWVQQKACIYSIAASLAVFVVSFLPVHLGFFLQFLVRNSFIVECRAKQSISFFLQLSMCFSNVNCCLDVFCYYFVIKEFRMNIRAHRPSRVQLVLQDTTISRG

Integrin alpha-4 = Integrin alpha-4 (Homo sapiens, UniProt P13612); assay: allosteric modulators of alpha4 integrin VLA-4 – cell-based, LIBS antibody binding, flow cytometry, SAR follow-up (AID 488791)
Chain of Integrin alpha-4 (P13612 whole entry): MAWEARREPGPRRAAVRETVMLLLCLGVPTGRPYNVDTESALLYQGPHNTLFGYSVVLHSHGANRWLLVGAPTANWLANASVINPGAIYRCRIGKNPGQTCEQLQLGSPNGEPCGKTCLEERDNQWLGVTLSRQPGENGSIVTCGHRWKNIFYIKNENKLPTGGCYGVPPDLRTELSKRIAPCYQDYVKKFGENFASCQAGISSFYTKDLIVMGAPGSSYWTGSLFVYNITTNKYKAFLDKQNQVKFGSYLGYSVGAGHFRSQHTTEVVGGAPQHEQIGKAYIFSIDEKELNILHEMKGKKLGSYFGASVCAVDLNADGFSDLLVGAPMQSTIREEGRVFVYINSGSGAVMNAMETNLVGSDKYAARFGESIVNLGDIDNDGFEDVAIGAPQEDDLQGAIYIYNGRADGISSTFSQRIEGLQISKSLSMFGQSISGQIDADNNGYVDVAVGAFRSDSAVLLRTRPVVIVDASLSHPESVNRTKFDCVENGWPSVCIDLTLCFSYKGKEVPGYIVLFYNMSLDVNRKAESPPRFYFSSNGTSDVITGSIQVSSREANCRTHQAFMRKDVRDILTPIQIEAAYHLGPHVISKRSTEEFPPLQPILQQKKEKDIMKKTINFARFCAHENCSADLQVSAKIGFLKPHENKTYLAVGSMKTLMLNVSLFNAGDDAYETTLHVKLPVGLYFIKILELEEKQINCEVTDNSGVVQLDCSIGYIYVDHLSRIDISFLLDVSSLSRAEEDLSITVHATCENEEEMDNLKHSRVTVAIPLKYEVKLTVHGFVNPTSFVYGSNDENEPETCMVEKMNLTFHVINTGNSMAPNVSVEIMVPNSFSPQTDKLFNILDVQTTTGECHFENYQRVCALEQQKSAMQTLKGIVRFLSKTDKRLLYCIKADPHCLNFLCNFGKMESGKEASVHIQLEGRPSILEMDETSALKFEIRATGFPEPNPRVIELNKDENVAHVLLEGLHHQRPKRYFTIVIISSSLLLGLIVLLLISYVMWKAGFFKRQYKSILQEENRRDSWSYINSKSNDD

INS1 = assay: INS-1E survival protection against cytokine death – cell-based, luminescence, retest, dose response (AID 449756); conditions: Rattus norvegicus;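 note: cell death triggered by IL-1 beta plus TNF-alpha plus IFN-gamma mixture; protective hits raise ATP signal compared with cytokine alone wells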
[12] = molecular target: T4, Tyrosine-protein phosphatase non-receptor type 7 (Homo sapiens, UniProt P35236)
T4 sequence (P35236 whole entry): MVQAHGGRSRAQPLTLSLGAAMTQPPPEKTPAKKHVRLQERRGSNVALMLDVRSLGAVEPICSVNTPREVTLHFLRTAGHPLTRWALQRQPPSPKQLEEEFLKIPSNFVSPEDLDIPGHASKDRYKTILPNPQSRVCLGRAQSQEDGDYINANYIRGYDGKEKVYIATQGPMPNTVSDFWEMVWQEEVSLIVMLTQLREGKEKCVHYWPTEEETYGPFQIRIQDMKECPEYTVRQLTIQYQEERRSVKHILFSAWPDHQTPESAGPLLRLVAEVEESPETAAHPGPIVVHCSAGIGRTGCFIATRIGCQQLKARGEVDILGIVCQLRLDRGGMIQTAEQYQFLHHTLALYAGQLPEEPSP

[13] = molecular target: T5, Tyrosine-protein phosphatase non-receptor type 22 (Homo sapiens, UniProt Q9Y2R2)
T5 sequence (Q9Y2R2 whole entry): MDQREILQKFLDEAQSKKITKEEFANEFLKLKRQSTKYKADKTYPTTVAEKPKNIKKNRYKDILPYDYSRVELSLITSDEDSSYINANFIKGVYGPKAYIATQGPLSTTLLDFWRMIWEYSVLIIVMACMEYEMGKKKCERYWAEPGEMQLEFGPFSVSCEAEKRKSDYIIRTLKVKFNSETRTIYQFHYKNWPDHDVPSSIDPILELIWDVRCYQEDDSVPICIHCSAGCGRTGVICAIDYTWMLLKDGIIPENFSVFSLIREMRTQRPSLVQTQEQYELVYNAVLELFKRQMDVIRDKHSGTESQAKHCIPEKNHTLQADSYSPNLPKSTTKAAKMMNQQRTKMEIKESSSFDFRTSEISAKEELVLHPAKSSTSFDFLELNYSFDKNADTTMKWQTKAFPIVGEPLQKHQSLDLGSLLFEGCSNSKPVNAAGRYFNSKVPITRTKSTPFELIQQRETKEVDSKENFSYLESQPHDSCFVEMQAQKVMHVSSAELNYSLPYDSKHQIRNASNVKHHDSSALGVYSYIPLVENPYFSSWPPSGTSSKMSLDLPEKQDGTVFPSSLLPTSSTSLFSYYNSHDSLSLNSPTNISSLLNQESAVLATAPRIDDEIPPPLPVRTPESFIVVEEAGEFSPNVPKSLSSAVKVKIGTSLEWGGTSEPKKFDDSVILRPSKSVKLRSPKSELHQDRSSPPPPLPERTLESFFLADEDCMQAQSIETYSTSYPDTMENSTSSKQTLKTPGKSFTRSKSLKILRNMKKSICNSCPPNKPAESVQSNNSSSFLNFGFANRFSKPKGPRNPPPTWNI

[14] = molecular target: T5, Tyrosine-protein phosphatase non-receptor type 22; remark: listed apart in the source
SUMO E1/E2 = SUMO E1/E2 (Homo sapiens, UniProt P63279+Q9UBE0+Q9UBT2); assay: SAR analysis of SUMOylation using HTRF in an in-Vitro dose response assay. [Related pubchem assays (depositor defined):AID2006, AID2011, AID2018, AID2069, AID2658]
Chain of SUMO E1/E2 (Q9UBE0 whole entry): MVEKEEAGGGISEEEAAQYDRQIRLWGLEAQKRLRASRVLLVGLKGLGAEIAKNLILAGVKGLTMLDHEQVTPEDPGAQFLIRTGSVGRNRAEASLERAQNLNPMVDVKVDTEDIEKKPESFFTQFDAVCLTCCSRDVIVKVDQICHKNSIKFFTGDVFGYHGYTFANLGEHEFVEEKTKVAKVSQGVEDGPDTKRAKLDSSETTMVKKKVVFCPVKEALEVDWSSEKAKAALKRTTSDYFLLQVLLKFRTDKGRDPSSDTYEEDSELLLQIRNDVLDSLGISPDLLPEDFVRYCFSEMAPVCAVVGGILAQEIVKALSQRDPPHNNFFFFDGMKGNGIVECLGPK
Chain of SUMO E1/E2 (Q9UBT2 whole entry): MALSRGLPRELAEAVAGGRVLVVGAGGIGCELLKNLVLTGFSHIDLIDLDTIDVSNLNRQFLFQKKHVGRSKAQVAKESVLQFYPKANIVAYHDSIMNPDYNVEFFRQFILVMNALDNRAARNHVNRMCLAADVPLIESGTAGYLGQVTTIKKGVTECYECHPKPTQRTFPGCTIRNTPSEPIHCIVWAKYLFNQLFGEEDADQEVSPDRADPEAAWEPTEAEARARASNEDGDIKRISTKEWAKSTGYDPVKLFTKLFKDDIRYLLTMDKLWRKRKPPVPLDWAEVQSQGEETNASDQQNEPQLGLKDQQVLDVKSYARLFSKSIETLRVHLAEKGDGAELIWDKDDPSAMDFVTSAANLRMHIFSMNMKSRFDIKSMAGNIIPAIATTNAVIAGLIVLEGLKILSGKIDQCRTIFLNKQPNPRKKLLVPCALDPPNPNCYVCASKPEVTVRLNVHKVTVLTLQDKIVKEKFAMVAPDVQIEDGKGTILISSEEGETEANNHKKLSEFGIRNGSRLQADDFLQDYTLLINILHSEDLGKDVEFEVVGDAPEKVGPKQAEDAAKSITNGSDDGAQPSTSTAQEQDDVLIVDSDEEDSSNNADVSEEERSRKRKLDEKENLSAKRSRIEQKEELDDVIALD
Chain of SUMO E1/E2 (P63279 whole entry): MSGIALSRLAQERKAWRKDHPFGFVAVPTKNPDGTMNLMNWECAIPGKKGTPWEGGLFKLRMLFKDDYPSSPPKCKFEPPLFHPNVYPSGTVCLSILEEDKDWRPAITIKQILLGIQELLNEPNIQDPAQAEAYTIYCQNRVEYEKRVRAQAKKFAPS

Structure (SMILES): CCOC(=O)/C(=C\c1ccc(OC(F)F)cc1)C1=Nn2c(nnc2-c2ccc(Cl)cc2)SC1
- IC50 [1]: 0.034 µM (active)
- IC50 [2]: 0.494 µM (active)
- IC50 [3]: 0.351 µM (active)
- EC50 [4]: 6.62 µM (active)
- EC50 [5]: 10.2 µM (active)
- IC50 [6]: 0.614 µM (active)
- IC50 [7]: 0.342 µM (active)
- EC50 [8]: 9.67 µM (active)
- IC50 [9]: 0.168 µM (active)
- IC50 [10]: 6.1 µM (active)
- EC50 [11]: > 32 µM (inactive)
- EC50 (Integrin alpha-4): 11.8 µM (active)
- AC50 (INS1): 4.22 µM (active)

Structure (SMILES): O=C(c1ccncc1)N1CCN(C(=O)c2ccncc2)CC1
- IC50 [12]: > 79.4 µM (inactive)
- IC50 [13]: > 79.4 µM (inactive)
- IC50 [14]: > 79.4 µM (inactive)

Structure (SMILES): S=c1[nH]nc(-c2cc(-c3ccccc3)[nH]n2)n1N=Cc1ccc(Cl)c(Cl)c1
- IC50 (SUMO E1/E2): > 100 µM (inactive)
